Measured values reported in the supplement of paper PMC10627819.

Assays:
B. subtilis 168 [1] = assay: fitness (endpoint OD595 vs no drug) (fraction); higher = more growth
How it was run: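 Plates with 384 wells were inoculated at OD595 0.01 using 30 µl of TSB, LB Lennox or CY, or 55 µl for S. pneumoniae. Incubation was at 37 °C, with OD595 measured every 30 min for 14 h. Fitness is the stationary-phase transition optical density over the robust mean of no-drug control wells, after first-reading background subtraction; it is capped at 1.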

S. aureus DSM 20231 = assay: Bliss interaction score (quartile over a dose matrix) (fitness difference); higher = more antagonism (negative = synergy)
How it was run: (§1)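 Each plate was normalised to the robust mean of its own no-drug wells, using OD595 at entry into stationary phase, with values capped at 1. This normalised growth is the fitness value. The Bliss score is the difference between observed and product-expected fitness, with single-drug fitness inferred from the combination data and quartiles taken over technical, biological and donor/recipient replicates.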

B. subtilis 168 [2] = assay: as above
How it was run: as §1

S. pneumoniae D39V = assay: as above
How it was run: as §1

S. aureus Newman = assay: as above
How it was run: as §1
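Throughout, for Bliss interaction score (quartile over a dose matrix): first quartile when negative (synergy) and third quartile when positive (antagonism).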

CC[C@H]1OC(=O)[C@H](C)[C@@H](O[C@H]2C[C@@](C)(OC)[C@@H](O)[C@H](C)O2)[C@H](C)[C@@H](O[C@@H]2O[C@H](C)C[C@H](N(C)C)[C@H]2O)[C@](C)(O)C[C@@H](C)CN(C)[C@H](C)[C@@H](O)[C@]1(C)O [Azithromycin] + CCC(C)C1C(=O)NC(=C)C(=O)NC(C(=O)NC(CSCC(C(=O)N1)NC(=O)/C(=C/C)/NC(=O)C(C(C)CC)N)C(=O)NC2C(SCC(NC(=O)CNC(=O)C3CCCN3C2=O)C(=O)NC(CCCCN)C(=O)NC4C(SCC(NC(=O)CNC(=O)C(NC(=O)C(NC(=O)C(NC(=O)CNC4=O)C)CC(C)C)CCSC)C(=O)NC(CC(=O)N)C(=O)NC(CCSC)C(=O)NC(CCCCN)C(=O)NC5C(SCC6C(=O)NC(C(=O)NC(CSC(C(C(=O)N6)NC(=O)C(NC5=O)C)C)C(=O)NC(CO)C(=O)NC(C(C)CC)C(=O)NC(CC7=CN=CN7)C(=O)NC(C(C)C)C(=O)NC(=C)C(=O)NC(CCCCN)C(=O)O)CC8=CN=CN8)C)C)C)CC(C)C [Nisin]
fitness, B. subtilis 168 [1], main component drawn
Conditions	partner 0.5 µg/mL	partner 1 µg/mL	partner 2 µg/mL
first compound 0.25 µg/mL	0.904	0.837	0.724
first compound 0.5 µg/mL	0.862	0.805	0.636

fitness, B. subtilis 168 [1], one replicate, main component drawn
Conditions	partner 1.25 µg/mL	partner 1.6 µg/mL	partner 2.5 µg/mL	partner 3.2 µg/mL	partner 4 µg/mL	partner 5 µg/mL	partner 6.4 µg/mL	partner 8 µg/mL	partner 16 µg/mL
first compound 0.25 µg/mL	–	–	–	–	0.0321	–	–	0.0145	0.0145
first compound 0.5 µg/mL	0.889	0.611	0.0285	0.028	0.0372	0.0256	0.0317	0.0317	0.0189
first compound 1 µg/mL	0.844	0.038	0.415	0.0169	0.0347	0.0235	0.0188	0.0359	0.0271
first compound 2 µg/mL	0.358	0.023	0.0636	0.0193	–	0.0032	0.0113	–	–

main component drawn
Conditions	Bliss interaction score
B. subtilis 168 [2]	0.0397
S. aureus DSM 20231	-0.195
S. aureus Newman	-0.113
S. pneumoniae D39V	-0.0414

CC[C@H]1OC(=O)[C@H](C)[C@@H](O[C@H]2C[C@@](C)(OC)[C@@H](O)[C@H](C)O2)[C@H](C)[C@@H](O[C@@H]2O[C@H](C)C[C@H](N(C)C)[C@H]2O)[C@](C)(O)C[C@@H](C)CN(C)[C@H](C)[C@@H](O)[C@]1(C)O [Azithromycin] + CN(C)C(=O)C(CCN1CCC(O)(c2ccc(Cl)cc2)CC1)(c1ccccc1)c1ccccc1 [Loperamide]
Conditions	fitness
B. subtilis 168 [1], first compound 1 µg/mL, partner 50 µg/mL	0.041

Conditions	Bliss interaction score
B. subtilis 168 [2]	0.137
S. aureus DSM 20231	0.344
S. aureus Newman	0.101
S. pneumoniae D39V	0.131

CC[C@H]1OC(=O)[C@H](C)[C@@H](O[C@H]2C[C@@](C)(OC)[C@@H](O)[C@H](C)O2)[C@H](C)[C@@H](O[C@@H]2O[C@H](C)C[C@H](N(C)C)[C@H]2O)[C@](C)(O)C[C@@H](C)CN(C)[C@H](C)[C@@H](O)[C@]1(C)O [Azithromycin] + CO[C@@H]1[C@@H](OC(N)=O)[C@@H](O)[C@H](Oc2ccc3c(O)c(NC(=O)c4ccc(O)c(CC=C(C)C)c4)c(=O)oc3c2C)OC1(C)C [Novobiocin]
fitness, B. subtilis 168 [1]
Conditions	partner 0.0125 µg/mL	partner 0.025 µg/mL	partner 0.05 µg/mL	partner 0.1 µg/mL	partner 0.2 µg/mL
first compound 0.25 µg/mL	0.897	0.888	0.894	0.954	0.931
first compound 0.5 µg/mL	0.867	0.814	0.868	0.865	0.878
first compound 1 µg/mL	0.642	0.63	–	–	–

fitness, B. subtilis 168 [1], one replicate
Conditions	first compound 0.5 µg/mL	first compound 1 µg/mL	first compound 2 µg/mL
partner 0.125 µg/mL	0.772	0.765	0.347
partner 0.25 µg/mL	0.781	0.597	0.167
partner 0.5 µg/mL	0.507	0.473	0.0776

Conditions	Bliss interaction score
B. subtilis 168 [2]	0.0746
S. aureus DSM 20231	0.0496
S. aureus Newman	0.157
S. pneumoniae D39V	-0.0647

CC[C@H]1OC(=O)[C@H](C)[C@@H](O[C@H]2C[C@@](C)(OC)[C@@H](O)[C@H](C)O2)[C@H](C)[C@@H](O[C@@H]2O[C@H](C)C[C@H](N(C)C)[C@H]2O)[C@](C)(O)C[C@@H](C)CN(C)[C@H](C)[C@@H](O)[C@]1(C)O [Azithromycin] + C[C@H]1COc2c(N3CCN(C)CC3)c(F)cc3c(=O)c(C(=O)O)cn1c23 [Levofloxacin]
fitness, B. subtilis 168 [1]
Conditions	partner 0.002 µg/mL	partner 0.0039 µg/mL	partner 0.0078 µg/mL	partner 0.0312 µg/mL	partner 0.0625 µg/mL	partner 0.125 µg/mL
first compound 0.25 µg/mL	0.96	0.945	0.969	0.0317	0.0311	0.0281
first compound 0.5 µg/mL	0.848	0.808	0.862	0.0211	0.0396	0.0302
first compound 1 µg/mL	–	–	–	0.0198	0.0226	0.0241

fitness, B. subtilis 168 [1], one replicate
Conditions	first compound 0.5 µg/mL	first compound 1 µg/mL	first compound 2 µg/mL
partner 0.001 µg/mL	0.925	0.906	0.209
partner 0.002 µg/mL	–	–	0.029
partner 0.0039 µg/mL	–	–	0.0299

Conditions	Bliss interaction score
B. subtilis 168 [2]	0.0413
S. aureus DSM 20231	0.0911
S. aureus Newman	0.0787
S. pneumoniae D39V	0.0528

CC[C@H]1OC(=O)[C@H](C)[C@@H](O[C@H]2C[C@@](C)(OC)[C@@H](O)[C@H](C)O2)[C@H](C)[C@@H](O[C@@H]2O[C@H](C)C[C@H](N(C)C)[C@H]2O)[C@](C)(O)C[C@@H](C)CN(C)[C@H](C)[C@@H](O)[C@]1(C)O [Azithromycin] + C[C@H]1c2cccc(O)c2C(=O)C2=C(O)[C@]3(O)C(=O)C(C(N)=O)=C(O)[C@@H](N(C)C)[C@@H]3[C@@H](O)[C@@H]21 [Doxycycline]
Conditions	fitness
B. subtilis 168 [1], first compound 0.25 µg/mL, partner 0.02 µg/mL	0.816

B. subtilis 168 [1], first compound 2 µg/mL, one replicate
Conditions	fitness
partner 0.02 µg/mL	0.0856
partner 0.04 µg/mL	0.0565
partner 0.08 µg/mL	0.115

Conditions	Bliss interaction score
B. subtilis 168 [2]	-0.362
S. aureus DSM 20231	-0.261
S. aureus Newman	-0.153
S. pneumoniae D39V	-0.139
